The IC50 is the concentration at which inhibition is half-maximal.

Some results are limits rather than exact numbers.

The target in this assay is T1, full length PKC θ (Homo sapiens, UniProt Q04759).
T1 construct: 15 μL of full length PKC θ (Panvera Corporation); purchased Panvera Corporation
T1 sequence (Q04759 whole entry): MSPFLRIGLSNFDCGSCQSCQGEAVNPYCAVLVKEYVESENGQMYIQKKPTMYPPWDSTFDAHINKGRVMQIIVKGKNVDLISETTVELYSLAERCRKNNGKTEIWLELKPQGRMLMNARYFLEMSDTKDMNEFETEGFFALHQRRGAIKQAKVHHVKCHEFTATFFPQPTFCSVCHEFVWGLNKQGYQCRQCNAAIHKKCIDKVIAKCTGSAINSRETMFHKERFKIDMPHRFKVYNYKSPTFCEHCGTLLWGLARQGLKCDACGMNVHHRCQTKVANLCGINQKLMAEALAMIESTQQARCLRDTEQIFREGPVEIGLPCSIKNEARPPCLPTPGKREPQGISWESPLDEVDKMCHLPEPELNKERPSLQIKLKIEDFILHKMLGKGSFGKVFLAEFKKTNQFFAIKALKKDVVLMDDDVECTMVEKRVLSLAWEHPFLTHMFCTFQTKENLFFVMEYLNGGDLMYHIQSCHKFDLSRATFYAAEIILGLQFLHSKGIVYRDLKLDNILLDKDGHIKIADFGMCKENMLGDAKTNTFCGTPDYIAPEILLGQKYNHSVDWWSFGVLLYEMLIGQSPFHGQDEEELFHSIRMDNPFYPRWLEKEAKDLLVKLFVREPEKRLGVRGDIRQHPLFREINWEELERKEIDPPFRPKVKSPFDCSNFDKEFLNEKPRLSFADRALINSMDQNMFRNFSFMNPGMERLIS
In words: PKC-theta isoform inhibition assay (HTRF, 384 well plate). The following applies: full length PKC θ at 27 pM, peptide substrate 300 nM + 3 μM ATP, HTRF readout. The format is biochemical. How it is done:
An in vitro assay for detecting and measuring inhibition activity against PKC-theta isoform by candidate pharmacological agents is useful for evaluating and selecting a compound that modulates PKC-theta isoform. An IC50 value can be calculated after running the assay. Following is an assay protocol for measuring PKC-theta isoform.
Per well of a 384 well plate, compounds at various concentrations in 5 μL of 20% DMSO were pre-incubated for about 30 minutes at about 25° C. with 15 μL of full length PKC θ (Panvera Corporation) at 27 pM in an assay buffer (25 mM Hepes, pH 7.5, 5 mM DTT, 10 mM MgCl2, 10 mM 2-glycerophosphate, 12.5 μg/mL 1,2-dioleoyl-rac-glycerol, 10 μg/mL L-α-phosphatidyl-L-serine, 0.1% Bovine Serum Albumin). 10 μL of peptide substrate (biotin-(CH2)6— RFARKGSLRQKNV —CONH2) at 300 nM+3 μM ATP were added to each well and incubated for about 1 hour before quenching with 10 μL of 250 mM EDTA. 40 μL of detection buffer (25 mM Hepes, pH 7.5, 100 mM KF, 0.1% Bovine Serum Albumin, 0.01% Tween20) containing 2 nM anti-phospho antibody 2B9 (MBL International) labeled with europium cryptate (Cis-Bio International) and 0.0064 μg/mL streptavidin-allophycocyanin (Prozyme) was added to each well and incubated for two hours. Signal was then read on a Discovery HTRF (Packard).
On the technique in general: In TR-FRET formats the signal depends on donor and acceptor labels being close together.
On to `CN1CCN(Cc2cccc(-c3ccnc(NCCc4ccc(O)cc4)n3)c2)CC1` [Compound 81, 4-(2-{4-[3-(4-Methyl-piperazin-1-ylmethyl)-phenyl]-pyrimidin-2-ylamino}-ethyl)-phenol], for which the IC50 was less than 100 nM. As for `CC(c1cccc(-c2ccnc(NCCc3ccc(O)cc3)n2)c1)N(CCCN)S(C)(=O)=O` (stereo not drawn) [Compound 104], the figure is less than 100 nM; as for `COc1cc(CCNc2nccc(-c3cccc(OC(C)C)c3)n2)ccc1O` [Compound 107, 4-{2-[4-(3-Isopropoxy-phenyl)-pyrimidin-2-ylamino]-ethyl}-2-methoxy-phenol], less than 100 nM. As for `CC(=O)N(Cc1cccc(-c2ccnc(NCCc3ccc(O)cc3)n2)c1)CC1CCNC1` (stereo not drawn) [Compound 120, N-(3-{2-[2-(4-Hydroxy-phenyl)-ethylamino]-pyrimidin-4-yl}-benzyl)-N-pyrrolidin-3-ylmethyl-acetamide], the figure is less than 100 nM; as for `CC(O)c1cccc(-c2ccnc(NCCc3ccc(O)cc3)n2)c1` (stereo not drawn) [Compound 121, 4-(2-{4-[3-(1-Hydroxy-ethyl)-phenyl]-pyrimidin-2-ylamino}-ethyl)-phenol], less than 100 nM.

`CCN(CC)CCCNCc1cccc(-c2ccnc(NCCc3ccc(O)cc3)n2)c1` [Compound 125, 4-[2-(4-{3-[(3-Diethylamino-propylamino)-methyl]-phenyl}-pyrimidin-2-ylamino)-ethyl]-phenol]: the IC50 was less than 100 nM. The result for `CCN(CC)CCCN(CC)Cc1cccc(-c2ccnc(NCCc3ccc(O)cc3)n2)c1` [Compound 126] reads less than 100 nM; that for `C[C@H]1CNCCN1Cc1cccc(-c2ccnc(NCCc3cccc(F)c3)n2)c1` [Compound 130, [2-(3-Fluoro-phenyl)-ethyl]-{4-[3-(2-(S)-methyl-piperazin-1-ylmethyl)-phenyl]-pyrimidin-2-yl}-amine], less than 100 nM; that for `CCNCc1cccc(-c2ccnc(NCCc3ccc(O)cc3)n2)c1` [Compound 131, 4-{2-[4-(3-Ethylaminomethyl-phenyl)-pyrimidin-2-ylamino]-ethyl}-phenol], less than 100 nM.

Regarding `CC(C)NCc1cccc(-c2ccnc(NCCc3ccc(O)c(Cl)c3)n2)c1` [Compound 132, 2-Chloro-4-(2-{4-[3-(isopropylamino-methyl)-phenyl]-pyrimidin-2-ylamino}-ethyl)-phenol], the IC50 was less than 100 nM.

Take `CS(=O)(=O)N(Cc1cccc(-c2nc(NCCc3ccc(O)cc3)ncc2F)c1)C1CCNCC1` [Compound 134, N-(3-{5-Fluoro-2-[2-(4-hydroxy-phenyl)-ethylamino]-pyrimidin-4-yl}-benzyl)-N-piperidin-4-yl-methanesulfonamide]: the IC50 is less than 100 nM. The result for `CS(=O)(=O)N(Cc1cccc(-c2nc(NCCc3ccc(O)c(Cl)c3)ncc2F)c1)C1CCNCC1` [Compound 142, N-(3-{2-[2-(3-Chloro-4-hydroxy-phenyl)-ethylamino]-5-fluoro-pyrimidin-4-yl}-benzyl)-N-piperidin-4-yl-methanesulfonamide] reads less than 100 nM. As for `CCN(CCCN)Cc1cccc(-c2nc(NCCc3ccc(O)c(F)c3)ncc2F)c1` [Compound 143, 4-{2-[4-(3-{[(3-Amino-propyl)-ethyl-amino]-methyl}-phenyl)-5-fluoro-pyrimidin-2-ylamino]-ethyl}-2-fluoro-phenol], the figure is less than 100 nM; as for `[2H]C([2H])(CNc1nccc(-c2cccc(CN3CCNC[C@@H]3C)c2)n1)c1cc(F)cc(F)c1` [Compound 200, [2-(3,5-Difluoro-phenyl)-2,2 dideuteroethyl]-{4-[3-(2(S)-methyl-piperazin-1-ylmethyl)-phenyl]-pyrimidin-2-yl}-amine], less than 100 nM. For `CC(C)(C)NCc1cccc(-c2ccnc(NCCc3ccc(O)c(Cl)c3)n2)c1` [Compound 218, 4-(2-{4-[3-(tert-Butylamino-methyl)-phenyl]-pyrimidin-2ylamino}-ethyl)-2-chloro-phenol], the IC50 is less than 100 nM. The result for `C[C@H]1CNCC[C@H]1NCc1cccc(-c2ccnc(NCCc3ccc(O)cc3)n2)c1` [Compound 249, 4-[2-(4-{3-[(3(S)-Methyl-piperidin-4(R)-ylamino)-methyl]-phenyl}-pyrimidin-2-ylamino)-ethyl]-phenol] reads less than 100 nM; that for `NC(=O)C1CNCCN1Cc1cccc(-c2ccnc(NCCc3ccc(O)cc3)n2)c1` (stereo not drawn) [Compound 254, 1-(3-{2-[2-(4-Hydroxy-phenyl)-ethylamino]-pyrimidin-4-yl}-benzyl)-piperazine-2-carboxylic acid amide], less than 100 nM; that for `Oc1ccc(CCNc2nccc(-c3cccc(CN4CC5CC4CN5)c3)n2)cc1Cl` (stereo not drawn) [Compound 265, 2-Chloro-4-(2-{4-[3-(2,5-diaza-bicyclo[2.2.1]hept-2-ylmethyl)-phenyl]-pyrimidin-2-ylamino}-ethyl)-phenol], less than 100 nM. For the molecule `Oc1ccc(CCNc2nccc(-c3cccc(CN4CC5CC4CN5)c3)n2)cc1` (stereo not drawn) [Compound 266, 4-(2-{4-[3-(2,5-Diaza-bicyclo[2.2.1]hept-2-ylmethyl)-phenyl]-pyrimidin-2-ylamino}-ethyl)-phenol], the half-maximal inhibitory concentration (IC50) was less than 100 nM. The result for `C[C@H]1CNCCN1S(=O)(=O)c1cccc(-c2ccnc(NCCc3ccc(O)c(Cl)c3)n2)c1` [Compound 278] reads less than 100 nM; that for `Cc1c(CN2CCNC[C@@H]2C)cccc1-c1ccnc(NCCc2ccc(O)cc2)n1` [Compound 284, 4-(2-(4-(2-methyl-3-(((S)-2-methylpiperazin-1-yl)methyl)phenyl)pyrimidin-2-ylamino)ethyl)phenol], less than 100 nM. The result for `C[C@H]1CNCCN1Cc1cc(-c2ccnc(NCCc3ccc(O)cc3)n2)ccc1F` [Compound 286, 4-(2-(4-(4-fluoro-3-(((S)-2-methylpiperazin-1-yl)methyl)phenyl)pyrimidin-2-ylamino)ethyl)phenol] reads less than 100 nM.

Take `CCN(CCC1CCCCN1)Cc1cccc(-c2ccnc(NCCc3ccc(O)c(Cl)c3)n2)c1` (stereo not drawn) [Compound 289, 2-chloro-4-(2-(4-(3-((ethyl(2-(piperidin-2-yl)ethyl)amino)methyl)phenyl)pyrimidin-2-ylamino)ethyl)phenol]: the IC50 is less than 100 nM. The result for `Oc1ccc(CCNc2nccc(-c3cccc(CNCCc4ccccn4)c3)n2)cc1Cl` [Compound 292, 2-chloro-4-(2-(4-(3-((2-(pyridinyl-2-yl)ethylamino)methyl)phenyl)pyrimidin-2-ylamino)ethyl)phenol] reads less than 100 nM.

(Values after patent publication US7732444B2, “2-(amino-substituted)-4-aryl pyrimidines and related compounds useful for treating inflammatory diseases” (Millennium Pharmaceuticals, Inc., priority 2004, dated 2010).)
